These results are taken from paper PMC12030165, “Bioactivity of Synthesized Trifluoromethyl Thioxanthone Analogues” (Pharmaceuticals, 2025).

For one experiment, the target named is T1, COX-2 (Homo sapiens, UniProt P35354).
T1 construct: purchased Cayman Chemicals 701230
T1 sequence (P35354 18-604): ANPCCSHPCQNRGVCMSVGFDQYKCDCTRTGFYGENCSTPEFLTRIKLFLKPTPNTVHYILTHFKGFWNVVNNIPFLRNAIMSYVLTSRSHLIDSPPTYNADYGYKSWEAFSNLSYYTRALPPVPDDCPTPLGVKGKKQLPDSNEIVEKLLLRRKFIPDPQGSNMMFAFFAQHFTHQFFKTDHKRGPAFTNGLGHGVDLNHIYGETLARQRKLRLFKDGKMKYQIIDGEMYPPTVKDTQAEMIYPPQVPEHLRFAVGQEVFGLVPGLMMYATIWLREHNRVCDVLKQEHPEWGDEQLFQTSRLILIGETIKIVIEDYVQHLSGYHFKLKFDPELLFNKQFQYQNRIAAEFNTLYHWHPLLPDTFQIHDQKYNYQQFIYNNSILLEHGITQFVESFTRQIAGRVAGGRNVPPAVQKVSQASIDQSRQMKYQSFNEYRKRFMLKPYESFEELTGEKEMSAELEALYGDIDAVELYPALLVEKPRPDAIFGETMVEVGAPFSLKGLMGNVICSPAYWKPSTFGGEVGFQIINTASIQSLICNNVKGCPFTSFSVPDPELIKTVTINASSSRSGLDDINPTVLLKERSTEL
Briefly: COX (human) Inhibitor Screening Assay, COX-2. The class given is biochemical. The following applies: for COX-2 Selectivity: ratio of COX-1 and COX-2 IC50. The protocol: (§1) Our synthesized compounds’ COX-1 and COX-2 inhibitory activities were evaluated using the COX (human) Inhibitor Screening Assay Kit supplied by Cayman Chemicals (catalog no. 701230, Ann Arbor, MI, USA). The preparation of reagents and testing procedures were conducted according to the manufacturer’s recommendations. Two concentrations of the inhibitors (10 µM and 50 µM) were dissolved in a minimal amount of dimethyl sulfoxide (DMSO) and incubated with a mixture of COX-1 or COX-2 enzyme and heme in a diluted reaction buffer for 10 min at 37 °C. The reaction was initiated by adding 10 µL of arachidonic acid, followed by a two-minute incubation at 37 °C. The reaction was halted by adding 30 µL of stannous chloride solution to each reaction tube and incubating for 5 min at room temperature. The resulting PGF2α, produced by the COX reactions, was quantified using an enzyme-linked immunosorbent assay (ELISA). The 96-well plate was covered with plastic film and incubated for 18 h at room temperature on an orbital shaker. After incubation, the plate was rinsed five times with a wash buffer. Then, Ellman’s reagent (200 µL) was added, and the plate was incubated for approximately 60–90 min at room temperature until the absorbance of the blank well was in the range of 0.3–0.8 at 405 nm. The plate was read using a Unilab Microplate Reader 6000. The inhibitory percentage was calculated for each concentration tested against the control. The IC50 values were derived from the concentration-inhibition response curve, and the selectivity index (SI) was calculated by dividing the IC50 for COX-2 by the IC50 for COX-1 [52].

The subject of the next experiment is HeLa cells. Kind of experiment: Cytotoxicity (MTS) against HeLa cells. The format is cell-based. Particulars: for IC50: Homo sapiens, HeLa, concentration range 100–20,000 nM, read-out: IC50 of inhibition activity against Hela cells. The protocol: RPMI-1640 medium was used to culture cervical adenocarcinoma (HeLa) cancer cells, supplemented with 10% fetal bovine serum, 1% penicillin/streptomycin, and 1% L-glutamine. The HeLa cells were grown in a humidified environment at 37 °C with a 5% CO2 atmosphere. A 96-well plate was employed for seeding the cells at a density of 2.6 × 10^4 cells per well. Following a 24-h incubation, the cells were treated with various concentrations of the tested (AO) fractions. Cell viability was assessed using the Cell Titer 96® Aqueous One Solution Cell Proliferation (MTS) assay, following the manufacturer’s instructions (Promega Corporation, Wisconsin, WI, USA). Briefly, at the end of the treatment, 20 µL of MTS solution was added to each well containing 100 µL of media, and the cells were incubated at 37 °C for 2 h. The absorbance was measured using a UV-visible spectrophotometer at a wavelength of 490 nm.

In a further experiment the target is T2, COX-1 (Homo sapiens, UniProt P23219).
T2 construct: purchased Cayman Chemicals 701230
T2 sequence (P23219 24-599): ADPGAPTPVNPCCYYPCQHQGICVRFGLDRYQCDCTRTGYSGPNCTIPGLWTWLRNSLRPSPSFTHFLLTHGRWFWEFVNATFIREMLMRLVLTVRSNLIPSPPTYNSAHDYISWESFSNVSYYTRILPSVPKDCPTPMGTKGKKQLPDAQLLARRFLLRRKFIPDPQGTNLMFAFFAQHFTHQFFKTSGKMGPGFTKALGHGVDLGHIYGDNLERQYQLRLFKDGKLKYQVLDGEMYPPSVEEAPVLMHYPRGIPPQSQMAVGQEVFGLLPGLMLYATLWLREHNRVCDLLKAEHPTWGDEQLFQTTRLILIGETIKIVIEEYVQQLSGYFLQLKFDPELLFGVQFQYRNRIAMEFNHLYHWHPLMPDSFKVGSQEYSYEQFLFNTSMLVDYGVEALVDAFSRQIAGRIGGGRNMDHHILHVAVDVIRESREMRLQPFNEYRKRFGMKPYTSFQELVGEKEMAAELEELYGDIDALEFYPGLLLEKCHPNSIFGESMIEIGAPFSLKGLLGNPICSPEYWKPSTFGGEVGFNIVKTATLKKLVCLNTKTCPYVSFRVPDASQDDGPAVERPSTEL
Briefly: COX (human) Inhibitor Screening Assay, COX-1. The format is biochemical. The protocol:
as §1

Turning to `OC1(c2ccccc2)c2ccccc2Sc2ccc(C(F)(F)F)cc21` (stereo not drawn) [Compound 1, 9-phenyl-2-(trifluoromethyl)-9H-thioxanthen-9-ol], the IC50 came to 27.1 ± 0.6 nM on COX-2, 87.8 nM with HeLa cells and 40.2 ± 0.41 nM at COX-1. In addition, the “COX-2 Selectivity” value at COX-2 is recorded as 1.5. In addition, the “% toxicity against HeLa cells” value in the experiment with HeLa cells (200 nM) turned out to be 93.18%.
`OC1(Cc2ccccc2)c2ccccc2Sc2ccc(C(F)(F)F)cc21` (stereo not drawn) [Compound 2, 9-benzyl-2-(trifluoromethyl)-9H-thioxanthen-9-ol]: the IC50 against COX-2 is 74.1 ± 0.48 nM; in the experiment with HeLa cells, 169 nM; against COX-1, 14 ± 0.64 nM. For the same compound, the “COX-2 Selectivity” value on COX-2 is 0.2.
Take “S-(9-benzyl-2-(trifluoromethyl)-9H-thioxanthen-9-yl)-L-cysteine [Compound 3]”: at COX-2, the IC50 was determined as 25.9 ± 0.45 nM and the “COX-2 Selectivity” value is on record as 1.3. Moreover, at COX-1, the midpoint of inhibition, the IC50, lay at 32.5 ± 0.53 nM.

By IC50 is commonly meant the concentration at which inhibition is half-maximal.
